Data as given in ChEMBL document CHEMBL1201862, “PubChem BioAssay data set” (2004).
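Each compound was tested at five concentrations against cells in 96-well plates for 48 hours. GI50 is the concentration that inhibits growth by half.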 Activity calls are given as the source filed them. Cut-off read from the data, not from the text of the source: active = GI50 up to about 1.1 µM and inactive = higher.

Experiments:
Assay in all cases: NCI anticancer screen, dose series, 48 h
SNB-78 = system: SNB-78
XF498 = system: XF498
RXF 631 = system: RXF 631
DLD-1 = system: DLD-1
KM-20L2 = system: KM-20L2
DMS-273 = system: DMS-273
LXFL 529 = system: LXFL 529
DMS-114 = system: DMS-114
HOP-18 = system: HOP-18

Compound	GI50 (SNB-78)	GI50 (XF498)	GI50 (RXF 631)	GI50 (DLD-1)	GI50 (KM-20L2)	GI50 (DMS-273)	GI50 (LXFL 529)	GI50 (DMS-114)	GI50 (HOP-18)
O=C1C(CO)=C(CO)C(=O)c2c(O)ccc(O)c21	1.7 µM (inactive)	0.247 µM (active)	1.26 µM (inactive)	0.0653 µM (active)	0.498 µM (active)	0.369 µM (active)	0.177 µM (active)	0.24 µM (active)	–
CCCCN(CCCC)CC(C(=O)Nc1ccccc1)/C(C)=N\NC(=O)c1ccncc1 (centres undefined)	> 100 µM (inactive)	> 100 µM (inactive)	–	> 100 µM (inactive)	> 100 µM (inactive)	> 100 µM (inactive)	–	63 µM (inactive)	–
CCOC(=O)c1ncn2c1[nH]c(=O)c1ccccc12	> 100 µM (inactive)	> 100 µM (inactive)	–	–	> 100 µM (inactive)	> 100 µM (inactive)	> 100 µM (inactive)	> 100 µM (inactive)	–
CC(Oc1cc2oc(=O)cc(-c3ccccc3)c2cc1Cl)C(=O)O (centres undefined)	> 100 µM (inactive)	33.5 µM (inactive)	> 100 µM (inactive)	> 100 µM (inactive)	> 100 µM (inactive)	–	> 100 µM (inactive)	> 100 µM (inactive)	> 100 µM (inactive)
CN(C)c1ccc(/C=C2\C[N+](C)(C)C/C(=C\c3ccc(N(C)C)cc3)C2=O)cc1	> 49.8 µM (inactive)	> 10 µM (inactive)	–	35.9 µM (inactive)	12.9 µM (inactive)	5.25 µM (inactive)	7.55 µM (inactive)	7.53 µM (inactive)	37.1 µM (inactive)
CCOC(=O)c1cc2c(cn1)[nH]c1cccc(N)c12	> 100 µM (inactive)	> 100 µM (inactive)	–	> 100 µM (inactive)	–	> 100 µM (inactive)	> 100 µM (inactive)	> 100 µM (inactive)	> 100 µM (inactive)
C=CCN(N=O)C(=O)NCCCC(NC(C)=O)C(=O)NCc1ccccc1 (centres undefined)	–	> 100 µM (inactive)	> 100 µM (inactive)	–	> 100 µM (inactive)	> 100 µM (inactive)	> 100 µM (inactive)	> 100 µM (inactive)	10.9 µM (inactive)
CC(C)(C)C(=O)Cc1cc2c(cc1C(=O)O)S(=O)(=O)NC(C(C)(C)C)=C2	> 100 µM (inactive)	–	–	> 100 µM (inactive)	–	–	> 100 µM (inactive)	> 100 µM (inactive)	–
O=c1[nH]c2cccccc-2c1-c1nc2ccccc2[nH]1	25.7 µM (inactive)	18.5 µM (inactive)	–	32.4 µM (inactive)	46.5 µM (inactive)	15.5 µM (inactive)	22.2 µM (inactive)	10.3 µM (inactive)	–
O=C(O)C12C=CC(C1)c1ccccc12 (centres undefined)	–	–	–	> 100 µM (inactive)	> 100 µM (inactive)	> 100 µM (inactive)	> 100 µM (inactive)	> 100 µM (inactive)	> 100 µM (inactive)
Cc1ccc(NC(=O)CCC(=O)C2CC(=O)CC/C2=N\NC(=O)c2cc3ccccc3cc2O)cc1C (centres undefined)	28.6 µM (inactive)	31.1 µM (inactive)	32.6 µM (inactive)	30.5 µM (inactive)	27.5 µM (inactive)	13.2 µM (inactive)	21.4 µM (inactive)	19.8 µM (inactive)	21.8 µM (inactive)
CCCCn1c(-c2ccccc2)cs/c1=N\N=C1C=C(C(C)(C)C)C(=O)C(C(C)(C)C)=C1	–	> 100 µM (inactive)	> 100 µM (inactive)	–	> 100 µM (inactive)	> 100 µM (inactive)	> 100 µM (inactive)	> 100 µM (inactive)	–
CC1=CC2=C(OCO1)C(=O)c1ccccc1C2=O	33.1 µM (inactive)	–	–	21.5 µM (inactive)	22.9 µM (inactive)	10.5 µM (inactive)	21.7 µM (inactive)	3.35 µM (inactive)	12.4 µM (inactive)
COc1ccc(C2S/C(=C\c3cc(OC)c(OC)c(OC)c3)C(=O)N2NC(=O)Cc2ccccc2)cc1 (centres undefined)	–	–	–	94.2 µM (inactive)	–	> 100 µM (inactive)	61.9 µM (inactive)	72.9 µM (inactive)	> 100 µM (inactive)
CCOC(=O)NC(=O)c1cn(CCN2CCN(C(=O)NCCCCCCNC(=O)N3CCN(CCn4cc(C(=O)NC(=O)OCC)c(=O)[nH]c4=O)CC3)CC2)c(=O)[nH]c1=O	> 100 µM (inactive)	> 100 µM (inactive)	> 100 µM (inactive)	–	> 100 µM (inactive)	> 100 µM (inactive)	> 100 µM (inactive)	> 100 µM (inactive)	> 100 µM (inactive)
COC(=O)C(CC(C)=O)CS(=O)(=O)CC(=O)C(=O)Nc1cccc([N+](=O)[O-])c1 (centres undefined)	> 100 µM (inactive)	55.6 µM (inactive)	> 100 µM (inactive)	> 100 µM (inactive)	> 100 µM (inactive)	> 100 µM (inactive)	> 100 µM (inactive)	> 100 µM (inactive)	> 100 µM (inactive)
COC(=O)c1cc(C)n(NC(=O)OC(C)(C)C)c1C	95.1 µM (inactive)	–	–	> 100 µM (inactive)	> 100 µM (inactive)	> 100 µM (inactive)	> 100 µM (inactive)	> 100 µM (inactive)	–
Nc1ccn(CCOC(c2ccccc2)P(=O)(O)O)c(=O)n1 (centres undefined)	> 100 µM (inactive)	> 100 µM (inactive)	–	> 100 µM (inactive)	> 100 µM (inactive)	> 100 µM (inactive)	> 100 µM (inactive)	> 100 µM (inactive)	–
